# Laboratory results as given in US20140357512A1, “HISTONE DEACETYLASE (HDAC) BIOMARKERS IN MULTIPLE MYELOMA” (priority 2013, published 2014).
# Tested on: human myeloma cell line MM.1S
# Experiment: SILAC acetylated-lysine peptide profiling, HDAC inhibitor vs DMSO (light/heavy ratio)
# Assay type: cell-based
# From the text: An embodiment of the invention comprises utilizing the SILAC method in order to quantitate changes in protein expression between two or more populations of cells. The SILAC method is a technique based on mass spectrometry that detects differences in protein abundance among samples using non-radioactive isotopic labeling. The SILAC method is known in the art, and described in detail in Ong et al., “Stable Isotope Labeling by Amino Acids in Cell Culture, SILAC, as a Simple and Accurate Approach to Expression Proteomics”, Molecular & Cellular Proteomics, vol. 1, pp. 376-386 (2002), which is incorporated herein by reference in its entirety.
# Briefly, the SILAC method involves growing two populations of cells in cell culture. The first population of cells is grown in growth media containing normal amino acids (“normal media”). The second population of cells is grown in media lacking a standard essential amino acid (such as lysine), but is then supplemented with a non-radioactive, isotopically labeled form of that essential amino acid (such as lysine labeled with ^13C atoms, rather than normal ^12C atoms), which is called “heavy media”. When the two populations of cells are each growing in the medium, they incorporate the amino acids into all of their proteins. The growth of cells maintained in the heavy media is no different from that in normal media. All peptides containing the heavy amino acids are heavier than their normal counterparts. The cells from each of the two populations of cells are lysed. The lysates from each of the two cell populations are then combined. The combined cell lysates are then analyzed by mass spectrometry. Pairs of chemically identical peptides of different stable isotope composition can be differentiated in a mass spectrometer due to their difference in mass. The ratio of peak intensities in the mass spectrum for such peptide pairs reflects the abundance ratio for the two proteins.
# This example describes SILAC studies that were performed to compare the effects of three different HDAC inhibitors (Compound A, Compound B, and tubastatin A) to a control on a human multiple myeloma cell line. The HDAC inhibitors were also compared amongst themselves to determine differences in their effects.
# A human myeloma cell line MM.1S was grown using either ^12C (light) or ^13C (heavy) lysine containing culture medium. The “heavy” cells were treated with DMSO as the control, and the “light” cells were treated with a single HDAC inhibitor at 37° C. for 6 hours. The heavy and light cells were lysed, and the lysates were mixed in 1:1 ratio and digested with the protease trypsin. The acetylated lysine containing peptides (due to the action of the HDAC inhibitor) in the digested peptide pool were captured by a non-specific anti-acetylated lysine antibody cocktail (the antibodies identify both light and heavy acetylated peptides), and subjected to mass spectrometry analysis in order to identify thousands of individual peptides.
# Thousands of peptides were identified in pairs (^12C and ^13C) due to their known mass differences. The amino acid sequence and quantitative ratio (Light/Heavy) of a given peptide in two differentially treated cell lysates were then determined and annotated with their possible protein (gene) sources.
# As stated above, three HDAC inhibitors (Compound A, Compound B, and Tubastatin A) were used. Thus, the SILAC method was performed three times, with a different HDAC inhibitor compared to a control each time. Accordingly, there are three pairs of quantitative data in the table below, i.e., Compound A:DMSO, Compound B:DMSO, and Tubastatin A:DMSO. A cut-off of 1.30 fold of change (increase or decrease) was then used to determine “changed” or “+” in the table, and any peptides with a fold of change less than 1.3 fold were determined to be “unchanged” or “0” in the table. Those peptides that were not identified were marked as “NA” in the table. […]
compound,measurement,setting,value
"O=C(CCCCCCNC(=O)c1cnc(N(c2ccccc2)c2ccccc2)nc1)NO [Compound A, 2-(diphenylamino)-N-(7-(hydroxyamino)-7-oxoheptyl)pyrimidine-5-carboxamide]",light to heavy ratio (L/H ratio) of acetylated peptide MTDK(ac)CFR (SEQ ID NO: 573),"Mitochondrial import inner membrane translocase subunit Tim13 [45], gene TIMM13, inhibitor:DMSO",0.42 log 2
same,"light to heavy ratio (L/H ratio), log 2 scale, acetylated peptide YVK(ac)ALFR (SEQ ID NO: 771)","Mitochondrial import receptor subunit TOM70 [188], gene TOMM70A, drug:DMSO",0.99
same,light to heavy ratio (L/H ratio) of acetylated peptide (ac)AEPVSPLK(ac)HFVLAK (SEQ ID NO: 508),"Mitochondrial transmembrane GTPase FZO-2 [37], gene MFN1, inhibitor:DMSO",−0.63 log 2
same,light to heavy ratio (L/H ratio) of acetylated peptide LSLLSK(ac)FR (SEQ ID NO: 564),"Mitochondrial trifunctional protein beta subunit (Fragment) [100], gene HADHB, inhibitor:DMSO",0.41 log 2
same,light to heavy ratio (L/H ratio) of acetylated peptide EIFQNEK(ac)R (SEQ ID NO: 288),"NAD(P) transhydrogenase mitochondrial [70], NNT, drug:DMSO",0.64 log 2
same,light to heavy ratio (L/H ratio) of acetylated peptide AISPDK(ac)DNFYFDVK (SEQ ID NO: 284),"NAD(P) transhydrogenase mitochondrial [403], NNT, drug:DMSO",0.61 log 2
same,L/H ratio of acetylated peptide,"NK(ac)WFFQK (SEQ ID NO: 498), 60S ribosomal protein L27 [128], RPL27",−0.86 log 2
same,L/H ratio of acetylated peptide,"NK(ac)YGDAFIR (SEQ ID NO: 496), U6 snRNA-associated Sm-like protein LSm6 [59], LSM6",−0.93 log 2
same,L/H ratio of acetylated peptide ADKDYHFK(ac)[…] (SEQ ID NO: 61),"NPM1 [32], log 2 scale, drug vs DMSO",0.00
same,L/H ratio of acetylated peptide FINYVK(ac)NCFR (SEQ ID NO: 62),"NPM1 [244], log 2 scale, drug vs DMSO",0.00
same,L/H ratio of acetylated peptide GVTQFGNK(ac)[…] (SEQ ID NO: 18),"NUDT21 [23], log 2 scale, drug vs DMSO",1.00
same,light to heavy ratio (L/H ratio) of acetylated peptide FCLSK(ac)PGVYK (SEQ ID NO: 345),"Nodal modulator 1 [630], NOMO3, NOMO1, drug:DMSO",0.00 log 2
same,light to heavy ratio (L/H ratio) of acetylated peptide […](ac)R (SEQ ID NO: 532),"Nucleosome assembly protein 1-like 1 [116], gene NAP1L1, inhibitor:DMSO",−0.41 log 2
same,L/H ratio of acetylated peptide SGVGNVFIK(ac)NLDK (SEQ ID NO: 63),"PABPC4 [104], log 2 scale, drug vs DMSO",0.00
same,L/H ratio of acetylated peptide […](ac)IFR (SEQ ID NO: 66),"PDIA3 [104], log 2 scale, drug vs DMSO",0.00
same,L/H ratio of acetylated peptide PSHLTNK(ac)FEDK (SEQ ID NO: 65),"PDIA3 [214], log 2 scale, drug vs DMSO",0.00
same,L/H ratio of acetylated peptide GEK(ac)FVMQEEFSR (SEQ ID NO: 64),"PDIA3 [335], log 2 scale, drug vs DMSO",0.00
same,L/H ratio of acetylated peptide SLLGK(ac)DVLFLK (SEQ ID NO: 67),"PGK1 [91], log 2 scale, drug vs DMSO",0.00
same,"light to heavy ratio (L/H ratio) of acetylated peptide, log 2 scale","PLISVYSEK(ac)GESSGK (SEQ ID NO: 247), 60S ribosomal protein L4 [14], RPL4",−0.54
same,L/H ratio of acetylated peptide SIYGEK(ac)FEDENFILK (SEQ ID NO: 68),"PPIA [82], log 2 scale, drug vs DMSO",0.00
same,L/H ratio of acetylated peptide VIFGLFGK(ac)TVPK (SEQ ID NO: 70),"PPIB [67], log 2 scale, drug vs DMSO",0.00
same,L/H ratio of acetylated peptide TVPK(ac)[…] (SEQ ID NO: 69),"PPIB [71], log 2 scale, drug vs DMSO",0.00
same,L/H ratio of acetylated peptide VIK(ac)[…] (SEQ ID NO: 71),"PPIB [98], log 2 scale, drug vs DMSO",0.00
same,L/H ratio of acetylated peptide IYGFYDECK(ac)R (SEQ ID NO: 72),"PPP1CC [141], log 2 scale, drug vs DMSO",0.00
same,light to heavy ratio (L/H ratio) of acetylated peptide TAWLDGK(ac)HVVFGK (SEQ ID NO: 592),"Peptidyl-prolyl cis-trans isomerase B [165], gene PPIB, inhibitor:DMSO",0.44 log 2
same,light to heavy ratio (L/H ratio) of acetylated peptide FPDENFK(ac)LK (SEQ ID NO: 347),"Peptidyl-prolyl cis-trans isomerase C [123], PPIC, drug:DMSO",0.00 log 2
same,light to heavy ratio (L/H ratio) of acetylated peptide HVVFGK(ac)VK (SEQ ID NO: 576),"Peptidylprolyl isomerase A (Cyclophilin A) (PPIA) pseudogene [141], gene PPIAP26, inhibitor:DMSO",0.42 log 2
same,light to heavy ratio (L/H ratio) of acetylated peptide LAK(ac)YFFNK (SEQ ID NO: 604),"Periodic tryptophan protein 2 homolog [279], gene PWP2, inhibitor:DMSO",0.46 log 2
same,light to heavy ratio (L/H ratio) of acetylated peptide AAWEHMK(ac)K (SEQ ID NO: 551),"Peroxisomal multifunctional enzyme type 2 [139], gene HSD17B4, inhibitor:DMSO",0.39 log 2
same,light to heavy ratio (L/H ratio) of acetylated peptide FAK(ac)[…] (SEQ ID NO: 557),"Peroxisomal multifunctional enzyme type 2 [565], gene HSD17B4, inhibitor:DMSO",0.40 log 2
same,light to heavy ratio (L/H ratio) of acetylated peptide […](ac)EALKK (SEQ ID NO: 619),"Poly [ADP-ribose] polymerase 1 [192], gene PARP1, inhibitor:DMSO",0.48 log 2
same,light to heavy ratio (L/H ratio) of acetylated peptide […](ac)DELKK (SEQ ID NO: 346),"Poly [ADP-ribose] polymerase 1 [249], PARP1, drug:DMSO",0.00 log 2
same,light to heavy ratio (L/H ratio) of acetylated peptide […](ac)NVLK (SEQ ID NO: 527),"Pre-mRNA-processing-splicing factor 8 [2108], gene PRPF8, inhibitor:DMSO",−0.44 log 2
same,light to heavy ratio (L/H ratio) of acetylated peptide ALK(ac)YLVMDEADR (SEQ ID NO: 513),"Probable ATP-dependent RNA helicase DDX47 [169], gene DDX47, inhibitor:DMSO",−0.58 log 2
same,light to heavy ratio (L/H ratio) of acetylated peptide (ac)AAK(ac)VFESIGK (SEQ ID NO: 277),"Prohibitin [4], PHB, drug:DMSO",0.54 log 2
